Values quoted from earlier work as cited in patent publication US9884040B2, “Desethylamiodarone for use in cancer treatment” (PÉCSI TUDOMÁNYEGYETEM, priority 2015, dated 2018).

Settings: in vivo; cited from earlier work

Structure (SMILES): CCCCc1oc2ccccc2c1C(=O)c1cc(I)c(OCCN(CC)CC)c(I)c1 [amiodarone]
- Recommended therapeutic range: < 5.7 µM
